{"source": "patent US10369123B2", "about": "“Perk activator for the treatment of neurodegenerative diseases” (DEUTSCHES ZENTRUM FÜR NEURODEGENERATIVE ERKRANKUNGEN E.V. …, priority 2014, dated 2019)", "key": {"[1]": {"test_system": "pathological tau species", "experiment": "Immunoblot of tau species in P301S mouse brains", "assay_type": "in vivo", "conditions": "P301S mice, 2 mg/kg i.p. once daily for 6 weeks from 17 weeks of age, vs saline", "experimental": "For the efficacy trial in the late disease stage (Xu et al. 2014), P301S mice and wild type littermates received once daily i.p. injections of 2 mg/kg CCT020312 or saline from 17 to 22 weeks of age (n=12 for CCT020312 treated P301S mice, n=9 for other groups); they were analyzed with the Rotarod test in the 23rd week of age.\nTwelve hours after the last injection, animals were anesthetized by i.p. injections of pentobarbital at (100 mg/kg) and transcardially perfused with 0.1 M phosphate buffer for 2 min, then fixed for 10 min with 4% paraformaldehyde. Post-fixation of the brain was done in 4% paraformaldehyde at 4° C. for 48 h. Their brains were prepared for histological analysis, as described (Xu et al. 2014). For the immunoblot analysis in P301S mice and wild type mice were sacrificed by cervical dislocation, their brains were frozen on dry ice and stored at −80° C. for Western blot analysis.\nFrontal cortex tissue was dissected from the fresh-frozen sample on dry ice and suspended in 750 μl of T-PER Tissue Protein Extraction Reagent (Thermo Fisher Scientific) and 1× cOmplete Protease Inhibitor Cocktail Tablets (Hoffmann-La Roche) and 1× PhosSTOP Phosphatase Inhibitor Cocktail Tablets (Hoffmann-La Roche). The tissue piece was initially ground with a pestle inside a microcentrifuge tube on ice and then homogenized by sonification with Branson Sonifier 450 Analog (Branson, now Thermo Fisher Scientific) with 10×500 ms bursts at intensity level 3 on ice. […] Protein concentrations were determined using the BCA kit (Thermo Fisher Scientific) by heating the samples at 60° C. for 30 minutes and measuring the absorption on the NanoDrop 2000c spectrophotometer (Thermo Fisher Scientific).\n20 μg of protein (200 μg for pPERK blots) were adjusted to equal concentrations between samples by dilution with M-PER and subsequently heated at 95° C. for 5 minutes with Roti®-Load 1 (Carl Roth). […] Chemiluminescence was detected with the Gel Doc™ XR System (BioRad) and analyzed with the Image Lab™ software (BioRad), followed by graphical and statistical analysis with Prism 6 (GraphPad Software)."}, "[2]": {"test_system": "LUHMES neurons overexpressing 4R-tau", "experiment": "MTT assay, LUHMES neurons overexpressing 4R-tau", "assay_type": "cell-based, human", "conditions": "lentiviral 4R-tau overexpression 10 days, co-administration of PERK modulator", "experimental": "Nunc™ Nunclon™ Delta 6-well (for protein and mRNA) or 48-well (for cell assays) plates (Thermo Fisher Scientific, Waltham, Mass., USA) were coated with 100 μg/ml poly-L-lysine (Sigma-Aldrich, St. Louis, Mo., USA) and 5 μg/ml fibronectin (Sigma-Aldrich). LUHMES (Lund Human Mesencephalic) cells, derived from human embryonic ventral mesencephalic cells by conditional immortalization (Tet-off v-myc over-expression) were seeded out in a concentration of 130,000 cells/cm^2 to achieve a confluence of 50%. […]\nConcentrated lentiviral particles were titrated by transducing LUHMES cells with different dilutions at 6 hours after initiating differentiation. The lowest dilution at which at least 90% of cells expressed the transgene (as determined by immunohistochemistry of the cells fixed on day 2 post differentiation) was chosen for subsequent experiments. […]\nThiazolyl Blue Tetrazolium […] (Sigma Aldrich) was dissolved in sterile PBS to a concentration of 5 mg/ml. […] 100 μl from each well were transferred to a new 96-well plate and the absorbance was read with the FLUOstar Omega (BMG Labtech) platereader at a wavelength of 590 nm (reference wave length 630 nm). The data was analyzed using the MARS Data Analysis Software (BMG Labtech) and Prism 6."}}, "data": [{"compound": "CCN(CC)CCC(=O)N1N=C(c2c(-c3ccccc3)c3cc(Br)ccc3[nH]c2=O)CC1c1ccc(Br)cc1", "note": "(stereo not shown) [CCT020312, 6-bromo-3-[5-(4-bromo-phenyl)-1-(3-diethylamino-propionyl)-4,5-dihydro-1H-pyrazol-3-yl]-4-phenyl-1H-quinolin-2-one]", "values": [{"measurement": "AT180-immunoreactivity (paired helical filament tau), immunoblot", "setting": "[1]", "value": "decreased"}, {"measurement": "CP13-immunoreactivity (S202-phosphorylated tau), immunoblot", "setting": "[1]", "value": "decreased"}, {"measurement": "MC1-immunoreactivity (conformationally changed tau), immunoblot", "setting": "[1]", "value": "decreased"}, {"measurement": "4R-specific toxicity in MTT assay", "setting": "[2]", "value": "reduced significantly"}]}]}
